Target: ATP-dependent translocase ABCB1 (Homo sapiens, UniProt P08183)
Test: TP_TRANSPORTER: transepithelial transport (basal to apical) in MDR1-expressing MDCK cells
Assay type: functional, cell-based
Conditions: dog

Chain of ATP-dependent translocase ABCB1 (P08183 whole entry): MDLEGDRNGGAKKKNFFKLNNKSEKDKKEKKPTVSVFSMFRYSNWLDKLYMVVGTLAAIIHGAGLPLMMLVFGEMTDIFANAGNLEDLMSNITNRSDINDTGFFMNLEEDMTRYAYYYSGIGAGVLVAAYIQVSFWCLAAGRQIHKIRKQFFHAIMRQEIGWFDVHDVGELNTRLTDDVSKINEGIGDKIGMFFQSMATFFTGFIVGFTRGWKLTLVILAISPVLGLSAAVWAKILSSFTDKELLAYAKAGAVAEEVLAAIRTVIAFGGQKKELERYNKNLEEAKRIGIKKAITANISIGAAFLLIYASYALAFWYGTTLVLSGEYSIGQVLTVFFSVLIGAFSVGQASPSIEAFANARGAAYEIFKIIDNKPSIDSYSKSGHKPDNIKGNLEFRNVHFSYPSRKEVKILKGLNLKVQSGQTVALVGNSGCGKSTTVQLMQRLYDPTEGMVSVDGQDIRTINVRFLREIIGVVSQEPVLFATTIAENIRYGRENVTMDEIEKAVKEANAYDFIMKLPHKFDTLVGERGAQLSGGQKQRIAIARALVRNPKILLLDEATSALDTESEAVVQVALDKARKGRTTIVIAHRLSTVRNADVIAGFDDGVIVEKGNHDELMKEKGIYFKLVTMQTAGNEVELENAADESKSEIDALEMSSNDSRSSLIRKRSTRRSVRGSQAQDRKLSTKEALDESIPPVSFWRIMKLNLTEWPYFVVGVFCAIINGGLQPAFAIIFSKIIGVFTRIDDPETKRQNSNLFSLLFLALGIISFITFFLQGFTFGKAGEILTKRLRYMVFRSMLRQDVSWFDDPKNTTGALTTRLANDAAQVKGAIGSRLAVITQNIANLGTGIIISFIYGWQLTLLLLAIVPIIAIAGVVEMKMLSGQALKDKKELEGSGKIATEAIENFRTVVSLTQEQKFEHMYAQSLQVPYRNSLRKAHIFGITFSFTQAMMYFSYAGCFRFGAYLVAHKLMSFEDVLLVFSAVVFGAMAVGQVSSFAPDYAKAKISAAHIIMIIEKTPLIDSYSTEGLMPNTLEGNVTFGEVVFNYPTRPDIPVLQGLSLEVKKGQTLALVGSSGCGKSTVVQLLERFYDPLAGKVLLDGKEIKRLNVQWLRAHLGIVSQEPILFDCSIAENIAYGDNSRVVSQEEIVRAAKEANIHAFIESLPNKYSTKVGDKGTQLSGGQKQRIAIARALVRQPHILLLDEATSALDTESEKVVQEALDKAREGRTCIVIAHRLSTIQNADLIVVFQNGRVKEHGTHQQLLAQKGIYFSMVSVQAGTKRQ

`C[C@H]1O[C@@H](O[C@H]2[C@@H](O)C[C@H](O[C@H]3[C@@H](O)C[C@H](O[C@H]4CC[C@@]5(C)[C@H](CC[C@@H]6[C@@H]5C[C@@H](O)[C@]5(C)[C@@H](C7=CC(=O)OC7)CC[C@]65O)C4)O[C@@H]3C)O[C@@H]2C)C[C@H](O)[C@@H]1O` [DIGOXIN] was tested, and the Activity was “substrate [+]”.

For `CC(C)(C(=O)O)c1ccc(C(O)CCCN2CCC(C(O)(c3ccccc3)c3ccccc3)CC2)cc1` (configuration not stated) [FEXOFENADINE], the Activity was “substrate [+]”.
